According to US4071627A, “2-Oximino-tetrahydro-1,4-thiazin-5-one compounds and pesticidal carbamate derivatives” (priority 1976, dated 1978):

Experiments:
[1] = system: bean aphid (Aphis fabae Scop.); test: Bean Aphid Foliage Spray Test; assay type: in vivo; set-up: key: A: excellent control; B: partial control; C: no control; conditions: 500 ppm, 24 hours, adults and nymphs
Protocol: (§1) Suspensions of the test compounds were prepared by dissolving one gram of compound in 50 milliliters of acetone in which had been dissolved 0.1 gram (10 percent of the weight of compound) of an alkylphenoxy polyethoxyethanol surfactant, as an emulsifying or dispersing agent. The resulting solution was mixed into 150 milliliters of water to give roughly 200 milliliters of a suspension containing the compound in finely divided form. The thus-prepared stock suspension contained 0.5 percent by weight of test compound. The test concentrations in parts per million by weight employed in the tests described hereinbelow were obtained by appropriate dilutions of the stock suspension with water. The test procedures were as follows:
Adults and nymphal stages of the bean aphid (Aphis fabae Scop.) reared on potted dwarf nasturtium plants at 65°-70° F. and 50-70 percent relative humidity, constituted the test insects. For testing purposes, the number of aphids per pot was standardized to 100-150 by trimming plants containing excess aphids.
The test compounds were formulated by diluting the stock suspension with water to give a suspension containing 500 parts of test compound per million parts of final formulation.
The potted plants (one pot per compound tested) infested with 100-150 aphids, were placed on a revolving turntable and sprayed with 100-110 milliliters of test compound formulated by use of a DeVilbiss spray gun set at 40 psig. air pressure. This application, which lasted 25 seconds, was sufficient to wet the plants to run-off. As a control, 100-110 milliliters of a water-acetone-emulsifier solution containing no test compound were also sprayed on infested plants. After spraying, the pots were placed on their sides on a sheet of white standard mimeograph paper which had been previously ruled to facilitate counting. Temperature and humidity in the test room during the 24 hour holding period were 65°-70° F. and 50-70 percent, respectively. Aphids which fell onto the paper and were unable to remain standing after being uprighted were considered dead. Aphids remaining on the plants were observed closely for movement and those which were unable to move the length of the body upon stimulation by prodding were considered dead. Percent mortality was recorded for various concentration levels.
(§2) In these tests the pesticidal activity of the compounds against aphid, mite, Southern Armyworm, Mexican Bean Beetle, and house fly was rated as follows: […]

[2] = system: two-spotted mite (Tetranychus urticae Koch); test: Mite Foliage Spray Test; assay type: in vivo; set-up: key: A: excellent control; B: partial control; C: no control; conditions: 500 ppm, six days, adults and nymphs
Protocol: as §1
Adults and nymphal stages of the two-spotted mite (Tetranychus urticae Koch), reared on Tengergreen bean plants at 80±5 percent relative humidity, were the test organisms. Infested leaves from a stock culture were placed on the primary leaves of two bean plants 6 to 8 inches in height, growing in a 21/2 inch clay pot. 150-200 Mites, a sufficient number for testing, transferred from the excised leaves to the fresh plants in a period of 24 hours. Following the 24 hour transfer period, the excised leaves were removed from the infested plants. The test compounds were formulated by diluting the stock suspension with water to give a suspension containing 500 parts of test compound per million parts of final formulation. The potted plants (one pot per compound) were placed on a revolving turntable and sprayed with 100-110 milliliters of test compound formulation by use of a DeVilbiss spray gun set at 40 psig. air pressure. This application, which lasted 25 seconds, was sufficient to wet the plants to run-off. As a control, 100-110 milliliters of a water solution containing acetone and emulsifier in the same concentrations as the test compound formulation, but containing no test compound, were also sprayed on infested plants. The sprayed plants were held at 80±5 percent relative humidity for six days, after which a mortality count of motile forms was made. Microscopic examination for motile forms was made on the leaves of the test plants. Any individual which was capable of locomotion upon prodding was considering living.
as §2

[3] = system: southern armyworm (Prodenia eridania, (Cram.)); test: Southern Armyworm Leaf Spray Test; assay type: in vivo; set-up: key: A: excellent control; B: partial control; C: no control; conditions: 500 ppm, three days, larvae
Protocol: as §1
Larvae of the southern armyworm (Prodenia eridania, (Cram.)), reared on Tendergreen bean plants at a temperature of 80°±5° F. and a relative humidity of 50±5 percent, constituted the test insects.
The test compounds were formulated by diluting the stock suspension with water to give a suspension containing 500 parts of test compound per million parts of final formulation. Potted Tendergreen bean plants of standard height and age were placed on a revolving turntable and sprayed with 100-110 milliliters of test compound formulation by use of a DeVilbiss spray gun set at 10 psig air pressure. This application, which lasted 25 seconds, was sufficient to wet plants to run-off. As a control, 100-110 milliliters of a water-acetone-emulsifier solution containing no test compound were also sprayed on infested plants. When dry, the paired leaves were separated and each one was placed in a 9 centimeter Petri dish lined with moistened filter paper. Five randomly selected larvae were introduced into each dish and the dishes were closed. The closed dishes were labeled and held at 80°-85° F. for three days. Although the larvae cound easily consume the whole leaf within 24 hours, no more food was added. Larvae which were unable to move the length of the body, even upon stimulation by prodding, were considered dead. Percent mortality was […] for various concentration levels.
as §2

[4] = system: Mexican bean beetle (Epilachna varivestis, Muls.); test: Mexican Bean Beetle Leaf Spray Test; assay type: in vivo; set-up: key: A: excellent control; B: partial control; C: no control; conditions: 500 ppm, three days, fourth instar larvae
Protocol: as §1
Fourth instar larvae of the Mexican bean beetle (Epilachna varivestis, Muls.), reared on Tendergreen bean plants at a temperature of 80°±5° F. and 50±5 percent relative humidity, were the test insects.
The test compounds were formulated by diluting the stock suspension with water to give a suspension containing 500 parts of test compound per million parts of final formation. Potted Tendergreen bean plants of standard height and age were placed on a revolving turntable and sprayed with 100-110 milliliters of test compound formulated by use of a DeVilbiss spray gun set at 10 psig air pressure. This application, which lasted 25 seconds, was sufficient to wet plants to run-off. As a control, 100-110 milliliters of a water-acetone-emulsifier solution containing no test compound were also sprayed on infested plants. When dry, the paired leaves were separated and each was placed in a 9 centimeter Petri dish lined with moistened filter paper. Five randomly selected larvae were introduced into each dish, and the dishes were closed. The closed dishes were labeled and held at a temperature of 80°±5° F. for three days. Although the larvae could easily consume the leaf within 24 to 48 hours, no more food was added. Larvae which were unable to move the length of the body, even upon stimulation, were considered dead.
as §2

[5] = system: house flies (Musca domestica, L.); test: Fly Bait Test; assay type: in vivo; set-up: key: A: excellent control; B: partial control; C: no control; conditions: 500 ppm, 24 hours, adults
Protocol: as §1
Four to six day old adult house flies (Musca domestica, L.), reared according to the specifications of the Chemical Specialities Manufacturing Association (Blue Book, McNair-Dorland Co., N.Y. 1954; pages 243-244, 261) under controlled conditions of 80°±5° F. and 50±5 percent relative humidity, were the test insects. The flies were immobilized by anesthetizing with carbon dioxide and 25 immobilized individuals, males and females, were transferred to a cage consisting of a standard food strainer about 5 inches in diameter which was inverted over a wrapping-paper-covered surface. The test compounds were formulated by diluting the stock suspension with a 10 percent (by weight) sugar solution to give a suspension containing 500 parts of test compound per million parts of final formulation, by weight. Ten milliliters of the test formulation were added to a souffle cup containing a 1-inch square of an absorbent cotton pad. This bait cup was introduced and centered on the blotting paper under the food strainer prior to admitting the anesthetized flies. The caged flies were allowed to feed on the bait for 24 hours, at a temperature of 80°±5° F. and the relative humidity of 50±5 percent.
as §2

[6] = in vivo; conditions: rat, po
Protocol: Certain of these compositions were also evaluated to determine their peroral toxicity to mammals. The animal selected for this experiment was the rat.

Compound	Biological Activity, Aphid [1]	Biological Activity, Mite [2]	Biological Activity, Southern Armyworm [3]	Biological Activity, Mexican Bean Beetle [4]	Biological Activity, House Fly [5]	LD50 [6] [mg/kg]
CNC(=O)ON=C1SC(C)C(=O)NC1(C)C (stereo not shown) [2-[O-(Methylcarbamoyl)oximino]-3,3,6-trimethyltetrahydro-1,4-thiazin-5-one]	A	A	B	A	A	0.884
CNC(=O)ON=C1SCC(=O)NC1C (stereo not shown) [2-[O-(Methylcarbamoyl)oximino]-3-methyltetrahydro-1,4-thiazin-5-one]	B	A	A	A	A	5.66
CN(C)SN(C)C(=O)ON=C1SCC(=O)NC1(C)C [2-[O-(N-Dimethylaminosulfenyl-N-methylcarbamoyl)oximino]-3,3-dimethyltetrahydro-1,4-thiazin-5-one]	A	A	A	A	A	–
CC1C(=NOC(=O)N(C)SC(Cl)(Cl)Cl)SCC(=O)N1C (stereo not shown) [2-[O-(N-Trichloromethanesulfenyl-N-methylcarbamoyl)oximino]-3,4-dimethyltetrahydro-1,4-thiazin-5-one]	B	A	B	A	A	3.54
CNC(=O)ON=C1SCC(=O)N(C)C1C (stereo not shown) [2-[O-(methylcarbamoyl)oximino]-3,4-dimethyltetrahydro-1,4-thiazin-5-one]	A	A	C	A	A	–
